Results: patent US9200046B2, “Reporter system for high throughput screening of compounds and uses thereof” (priority 2011, dated 2015)
Counter-ions that a name gives are not always drawn. Like-named read-outs stand apart in the source and are kept apart here.

Target: Nrf2-Keap1 complex (Homo sapiens, UniProt Q14145)
Assay: cell-based
Format: cell-based
Details: for activation at 16 µM / activation at 32 µM: 3 h; for activation at 16 µM: read-out: Activation 100 nL; for activation at 32 µM: read-out: Activation 200 nL; for fold less effective than quercetin and fisetin: flavone SAR
[1] = Table 2, 100 nL compound, screen run at 16 and 32 μM, 3 hr
[2] = Table 2, 200 nL compound, screen run at 16 and 32 μM, 3 hr

Chain of Nrf2-Keap1 complex (Q14145 whole entry, one chain of several): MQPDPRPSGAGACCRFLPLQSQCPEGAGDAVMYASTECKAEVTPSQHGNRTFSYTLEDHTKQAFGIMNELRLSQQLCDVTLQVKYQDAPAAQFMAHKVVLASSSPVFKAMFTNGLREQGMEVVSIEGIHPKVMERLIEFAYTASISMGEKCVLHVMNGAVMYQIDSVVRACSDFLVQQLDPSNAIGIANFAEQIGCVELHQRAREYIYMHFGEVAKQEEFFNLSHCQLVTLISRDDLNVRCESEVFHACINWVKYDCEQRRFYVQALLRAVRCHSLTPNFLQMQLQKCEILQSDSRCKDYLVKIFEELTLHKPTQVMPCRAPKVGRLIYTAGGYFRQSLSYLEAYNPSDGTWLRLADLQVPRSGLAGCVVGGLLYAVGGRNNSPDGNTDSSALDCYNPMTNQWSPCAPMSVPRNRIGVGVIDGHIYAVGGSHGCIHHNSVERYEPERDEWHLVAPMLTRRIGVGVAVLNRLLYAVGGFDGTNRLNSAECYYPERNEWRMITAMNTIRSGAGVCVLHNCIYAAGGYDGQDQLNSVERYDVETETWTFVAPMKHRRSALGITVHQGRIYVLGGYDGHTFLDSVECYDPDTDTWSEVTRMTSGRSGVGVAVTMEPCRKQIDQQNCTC

CC(=O)O[C@H]1C[C@@H](O)C(C)(C)[C@@H]2C[C@@H](OC(C)=O)[C@]3(C)[C@H](CC[C@@]4(C)[C@@H](c5ccoc5)OC(=O)[C@H]5O[C@@]534)[C@@]12C [3-DEACETYLKHIVORIN]
Activation 100 nL: 94% | Activation 200 nL: 72% | 100 nL (luminescence) [1]: 1628 | 200 nL (luminescence) [2]: 2102

O=C(O)/C=C/c1ccc(O)c(O)c1 [[…]]
activation at 16 µM: 50% | activation at 32 µM: 61% | 100 nL (luminescence) [1]: 1040 | 200 nL (luminescence) [2]: 1840

C[C@@H]1C(=O)O[C@H]2[C@H]1CC[C@@]1(C)C=CC(=O)[C@@]3(C)O[C@@]213 [EPOXY(4,5alpha)-4,5-DIHYDROSANTONIN]
Activation 100 nL: 227% | Activation 200 nL: 186% | 100 nL (luminescence) [1]: 3828 | 200 nL (luminescence) [2]: 3164

CC(=O)Nc1ccc(O)cc1 [ACETAMINOPHEN, reference compound]
100 nL (luminescence): 996 | 200 nL (luminescence): 1012 | Neh2-luc reporter activation: more than 50% | activation at 16 µM: 53% | activation at 32 µM: 32%

COc1ccc(-c2oc3ccccc3c(=O)c2O)cc1OC [3-HYDROXY-3′,4′-DIMETHOXYFLAVONE]
activation at 16 µM: 85% | activation at 32 µM: -6% | 100 nL (luminescence) [1]: 1504 | 200 nL (luminescence) [2]: 316 | fold less effective than quercetin and fisetin: 2.5 fold

O=C(/C=C/c1ccccc1)c1ccc(O)cc1O [2′,4′-DIHYDROXYCHALCONE]
activation at 16 µM: 227% | activation at 32 µM: 45% | 100 nL (luminescence) [1]: 2352 | 200 nL (luminescence) [2]: 1388

O=c1c(O)c(-c2ccc(O)cc2)oc2cc(O)cc(O)c12 [kaempferol, 3,5,7,4′-tetrahydroxyflavone]
fold less effective than quercetin and fisetin: 2.5 fold

COc1ccc2c(c1)OCC(=Cc1ccc(O)c(O)c1)C2=O
Activation 100 nL: 292% | Activation 200 nL: 169% | 100 nL (luminescence) [1]: 4822 | 200 nL (luminescence) [2]: 2904

O=C(/C=C/c1ccccc1)c1ccc(O)cc1 [4′-HYDROXYCHALCONE]
100 nL (luminescence): 3674 | 200 nL (luminescence): 1488 | activation at 16 µM: 217% | activation at 32 µM: 76%

COc1ccc(-c2coc3cc(O)ccc3c2=O)c(O)c1O [KOPARIN]
Neh2-luc reporter activation: > 200% | activation at 16 µM: 223% | activation at 32 µM: 11% | 100 nL (luminescence) [1]: 3768 | 200 nL (luminescence) [2]: 492

CC1=C(CC(=O)O)c2cc(F)ccc2/C1=C\c1ccc([S+](C)[O-])cc1 (stereo not drawn) [reference compound]
Neh2-luc reporter activation: 200% | activation at 16 µM: 114% | activation at 32 µM: 188% | 100 nL (luminescence) (Table 1A, 100 nL compound, screen run at 16 and 32 μM, 3 hr): 2692 | 200 nL (luminescence) (Table 1A, 200 nL compound, screen run at 16 and 32 μM, 3 hr): 2710

CCOCN(C(=O)CCl)c1c(C)cccc1CC [ACETOCHLOR]
activation at 16 µM: 71% | activation at 32 µM: 112% | 100 nL (luminescence) [1]: 1320 | 200 nL (luminescence) [2]: 3024

O=c1ccn([C@@H]2O[C@H](COP(=O)([O-])OP(=O)([O-])OP(=O)([O-])O)[C@@H](O)[C@H]2O)c(=O)[nH]1.[Na+].[Na+].[Na+] [URIDINETRIPHOSPHATETRISODIUM]
Activation 100 nL: 28% | Activation 200 nL: 16% | 100 nL (luminescence) [1]: 612 | 200 nL (luminescence) [2]: 708

COc1cc(/C=C/CO)ccc1O [CONIFERYLALCOHOL]
activation at 16 µM: 125% | activation at 32 µM: 79% | 100 nL (luminescence) [1]: 2032 | 200 nL (luminescence) [2]: 2264

CC1(C)C(=O)C=C[C@]2(C)[C@H]3CC[C@@]4(C)[C@H](c5ccoc5)OC(=O)[C@H]5O[C@]54[C@]3(C)[C@H](O)C[C@@H]12 [DEACETYLGEDUNIN]
activation at 16 µM: 69% | activation at 32 µM: -7% | 100 nL (luminescence) [1]: 1412 | 200 nL (luminescence) [2]: 220

O=c1oc2cc(O)ccc2s1 [TIOXOLONE, reference compound]
activation at 16 µM: 156% | activation at 32 µM: 31% | 100 nL (luminescence) [1]: 3542 | 200 nL (luminescence) [2]: 768

NCCCCNCCCN [SPERMIDINETRIHYDROCHLORIDE]
activation at 16 µM: 72% | activation at 32 µM: 22% | 100 nL (luminescence) [1]: 1000 | 200 nL (luminescence) [2]: 860
